Paper PMC10056899, “Neuroprotective and Antiherpetic Properties of Polyphenolic Compounds from Maackia amurensis Heartwood” (Molecules, 2023)
Values after ≈ are worked out from the molar mass of the structure shown. Values joined by “and” are separate entries in the source; they are usually repeats but may differ in a detail not shown here. Identical values can stand only once. Like-named read-outs stand apart in the source and are kept apart here.

Columns and labels:
[1] = tested on: HSV-1; experiment: Anti-HSV-1 activity, cytopathic effect (CPE) inhibition assay in Vero cells; assay type: cell-based, HSV-1 strain L2; details: for IC50: read-out: IC50 (CPE assay); for SI = CC50/IC50: Vero cells, HSV-1
Experimental: (§1) The HSV-1 strain L2 and Vero cell culture (kidney epithelial cells of the African green monkey Chlorocebus sp.) were obtained from the N.F. Gamaleya Federal Research Centre for Epidemiology and Microbiology (Moscow, Russia). HSV-1 was grown in Vero cells, using Dulbecco′s Modified Eagle′s Medium (DMEM, Biolot, St. Petersburg, Russia) supplemented with 10% fetal bovine serum (FBS, Biolot, St. Petersburg, Russia) and 100 U/mL of gentamycin (Dalkhimpharm, Khabarovsk, Russia), at 37 °C in a CO2 incubator. In the maintenance medium, the FBS concentration was decreased to 1%.
(§2) The tested compounds were dissolved in DMSO (Sigma, St. Louis, MO, USA) at a concentration 10 mg/mL and stored at −20 °C. For cytotoxicity and anti-HSV-1 activity determination, the stock solutions were diluted with DMEM so that the final concentration of DMSO was 0.5%.
The anti-HSV-1 activity of stilbenes was evaluated using cytopathic effect (CPE) inhibition assay in Vero cells. We infected the monolayer of cells grown in 96-well plates (1 × 10^4 cells/well) with 100 µL/well of virus suspension (100 TCD50/mL) and we simultaneously treated it with stilbenes 1–6 (100 µL/well) at various concentrations (from 1 to 400 μg/mL) for one hour at 37 ◦C. After virus absorption, we removed the mixture of virus and stilbenes, washed the cells, and added the maintenance medium with 1% FBS. […] We used MTT assay to evaluate the antiviral activity of stilbenes. The viral inhibition rate (IR, %) was calculated according to Equation (3):(3) IR, %=Atv−Acv/Acd−Acv×100, where: • Atv is the absorbance of cells infected with virus and treated with a polyphenolic compound; • Acv is the absorbance of the untreated virus-infected cells; • Acd is the absorbance of control (untreated and non-infected) cells.
The selectivity index (SI) was calculated as the ratio of CC50 to IC50. Experiments were repeated three times.

[2] = Cytotoxicity against Vero cells (MTT assay); assay type: cell-based; details: African green monkey (Chlorocebus sp.)
Experimental: as §1, §2
The cytotoxicity evaluation of the studied compounds was performed using the MTT assay, as described previously. In brief, confluent Vero cells in 96-well microplates (1 × 10^4 cells/well) were incubated with tested compounds at various concentrations (1–500 μg/mL) at 37 °C for 48 h (5% CO2). Untreated cells were used as controls. Then, MTT solution (methylthiazolyltetrazolium bromide, Sigma, St. Louis, MO, USA) was added to cells at a concentration of 5 mg/mL and the cells were incubated at 37 °C for 2 h. After dissolution of formazan crystals, optical densities were read at 540 nm (Labsystems Multiskan RC, Vantaa, Finland). […] [42]. Experiments were performed in triplicate and repeated three times.

[3] = tested on: HSV-1; experiment: Anti-HSV-1 activity, HSV-1 DNA level by real-time PCR (RT-PCR); assay type: cell-based, HSV-1 strain L2; details: 5 µg/mL, simultaneous treatment, 48 h; for 1, 4 and Maxar given on average
Experimental: The anti-HSV-1 activity of the polyphenolic compounds from M. amurensis was also studied using the real-time PCR (RT-PCR) technique (Figure 5 and Table S69, Supplementary Data). Vero cells were simultaneously infected with 100 TCD50/mL HSV-1 and treated with polyphenolic compounds 1–6 at concentrations of 50 and 5 μg/mL. After 48 h of cell incubation, viral DNA was extracted from the supernatants, and the relative level of HSV-1 DNA was determined using RT-PCR. The effect of stilbenes on the relative level of viral DNA was assessed by 2^−ΔCt method and reported as fold reduction relative to virus control, to which the value of 1.0 was assigned.
For the viral DNA extraction assay, Vero cells grown in 96-well plates were infected with HSV-1 and simultaneously treated with polyphenolic compounds and incubated at 37 °C in a CO2-incubator for 48 h. After incubation, the culture media and the cells scraped from the plate were transferred to centrifuge tubes. The cell debris was removed by centrifugation at 300× g for 10 min. Then, supernatant was collected and kept at −20 °C. The HSV-1 DNA was extracted from supernatant by using the AmpliSens® DNA-sorb-AM (K1-12-100-CE) nucleic acid extraction kit (Moscow, Russia) according to the manufacturer′s instructions. […]
The DNA HSV was detected in the obtained DNA samples using the AmpliSens® HSV I, II-FRT-100F PCR kit (Moscow, Russia) on a real-time PCR instrument Rotor-Gene Q (Qiagen, Hilden, Nordrhein-Westfalen, Germany) according to the manufacturer′s instructions. […] In the real-time PCR, the amplified product is detected with the use of fluorescent dyes. […] The threshold cycle number, Ct, was measured as the PCR cycle, where the amount of amplified target reached the threshold value. The reduction in the HSV-1 DNA levels in culture supernatants was assessed by the change in the threshold cycle (ΔCt) (Equation (4)):(4) ΔCt=Cttv−Ctcv where: • Cttv is the average Ct value for the infected samples after treatment with polyphenolic compounds; • Ctcv corresponds to the average Ct value for the virus control. […]

[4] = DPPH radical scavenging assay; details: 20 min; for IC50: read-out: DPPH Scavenging Effect IC50
Experimental: The DPPH (2,2-diphenyl-1-picrylhydrazyl) scavenging effect of polyphenolic compounds 1-6 from M. amurensis heartwood was evaluated as described previously in [40]. Stilbenes were added to DPPH solution in MeOH (10^−4 M) at a concentration range from 1 to 34 µM. The mixture was kept in the dark at room temperature for 20 min. Then, we measured the absorbance at 517 nm using a Shimadzu UV 1240 spectrophotometer (Shimadzu, Kyoto, Japan). The DPPH radical-scavenging effect (%) of the stilbenes was calculated using Equation (1): (1) DPPH scavenging effect, %=A0−Ax/A0×100, where: • A0 is the absorbance of DPPH solution without polyphenolic compounds (blank sample); • Ax is the absorbance of DPPH solution in the presence of different concentrations of polyphenolic compounds.
Quercetin and ascorbic acid were used as reference compounds. All experiments were performed in triplicate. The half maximal inhibitory concentration (IC50) for polyphenolic compounds was calculated by plotting the DPPH scavenging effect (%) against the concentrations of polyphenolic compounds. IC50 values are given as the mean ± SEM.

[5] = Ferric reducing antioxidant power (FRAP) assay; details: 4 min, pH 3.6
Experimental: The FRAP assay was carried out as described in [41]. We prepared FRAP reagent by mixing 2.5 mL of TPTZ (2,4,6-tris(2-pyridyl)-s-triazine) solution (10 mM) in 40 mM HCl and […] of FeCl3 solution (20 mM) in acetate buffer solution (300 mM, pH 3.6). Then, we added stilbenes 1–6 to 3 mL of FRAP reagent at concentrations from 1 to 34 µM. The mixture was kept in the dark at room temperature for 4 min. Then, we measured the absorbance at 595 nm using a Shimadzu UV 1240 spectrophotometer. Equation (2) was used to calculate the FRAP values of stilbenes 1–6:(2) FRAP=CFe/Cx, where: • CFe is the concentration of Fe^2+ (µM) formed in the reaction; • Cx is the concentration of polyphenolic compounds in the reacting mixture.
The concentration of Fe^2+ (µM) formed in the reaction was determined using the calibration curve obtained for different concentrations of FeSO4·7H2O.

[6] = tested on: PQ-treated Neuro-2a cells; experiment: PQ-induced neurotoxicity model, cell viability (MTT assay); assay type: cell-based, murine; details: 10, 1, 0.1 μM, PQ 1 mM
Experimental: After 24 h of adhesion, we treated Neuro-2a cells (1 × 10^4 cells/well) with stilbenes (0.01–10 μM) for 1 h and added 1 mM of PQ (Sigma-Aldrich, St. Louis, MO, USA). Cells incubated without PQ or with PQ were used as positive and negative control, respectively. After 24 h, we measured the cell viability using MTT assay. The results are presented as percentages of the positive control value.

[7] = tested on: PQ-treated Neuro-2a cells; experiment: Mitochondrial membrane potential in PQ-treated cells (TMRM); assay type: cell-based, murine; details: 10 μM
Experimental: […] Then, we added PQ (500 μM) and kept the cell suspension in a CO2-incubator for 1 h. Cells incubated without PQ and stilbenes and with PQ only were used as positive and negative control, respectively. We added the tetramethylrhodamine methyl (TMRM) (Sigma-Aldrich, St. Louis, MO, USA) solution (500 nM) to each well and kept the cells for 30 min in a CO2-incubator at 37 °C. The intensity of fluorescence was measured with a PHERAstar […] reader (BMG Labtech, Ortenberg, Germany) at λex = 540 nm and λem = 590 nm. We processed the data by MARS Data Analysis v. 3.01R2 (BMG Labtech, Ortenberg, Germany) and presented the results as percentages of the positive control value.

[8] = tested on: PQ-treated Neuro-2a cells; experiment: Intracellular ROS level in PQ-treated cells (H2DCF-DA); assay type: cell-based, murine; details: 10, 1, 0.1 μM
Experimental: After 24 h of adhesion, Neuro-2a cells (1 × 10^4 cells/well) were incubated with stilbenes (0.01–10 µM) for 1 h. After that, we added PQ (1 mM) to each well and incubated the cells for 3 h. To study ROS formation, we added 20 µL of 2,7-dichlorodihydrofluorescein diacetate solution ([…], H2DCF-DA, Molecular Probes, Eugene, OR, USA) to each well, so that the concentration was 10 µM, and kept the microplate in a CO2–incubator for additional 30 min at 37 °C.

[9] = Human alphaherpesvirus 1, added to Vero cells simultaneously with the virus, 100 TCD50/mL

Row | SMILES | IC50 [1, 9] | SI = CC50/IC50 [1] | CC50 at 48 h [2] | Reduction of relative level of HSV-1 DNA relative to virus control [3] | DPPH Scavenging Effect IC50 [4] | IC50 [4] | FRAP CFe2+(µM)/Cpolyphenolic compound (µM) [5] | FRAP CFe2+(µM)/Cpolyphenolic compound (μkg/mL) [5] | Effect on viability of PQ-treated cells [6] | IC50 ([1]; Human alphaherpesvirus 1, Vero) | Increase of mitochondrial membrane potential compared to PQ-treated cells [7] | Effect on ROS level in PQ-treated cells [8]
1 | Nc1nc2c(ncn2COCCO)c(=O)[nH]1 [Acyclovir, reference compound] | 2.1 µg/mL and 9.3 µM | 430 | > 1000 µg/mL and > 4 mM | 4 log10 | – | – | – | – | – | – | – | –
2 | O=C1O[C@H]([C@@H](O)CO)C(O)=C1O [Ascorbic acid, reference compound] | – | – | – | – | 5.83 ± 0.49 µg | 33.1 ± 2.8 µM | 3.58 ± 0.29 CFe2+(µM)/Cpolyphenolic compound (µM) | 20.34 ± 0.16 CFe2+(µM)/Cpolyphenolic compound (μkg/mL) | – | – | – | –
3 | Oc1cc(O)cc(/C=C/c2ccc(O)c(O)c2)c1 [Compound 2, piceatannol] | 22 µg/mL and 90.2 µM | 11.4 ± 1.4 | 250 ± 30 µg/mL (≈ 1020 µM) | – | 1.05 ± 0.12 µg | 4.3 ± 0.5 µM | 15.71 ± 1.43 CFe2+(µM)/Cpolyphenolic compound (µM) | 64.38 ± 5.86 CFe2+(µM)/Cpolyphenolic compound (μkg/mL) | did not show any effect | – | – | –
4 | COc1ccc(-c2coc3c4c(ccc3c2=O)OC(c2cc(O)cc(O)c2)C(c2ccc(O)c(O)c2)O4)cc1 (stereo not drawn) [Compound 5, maackiasine] | – | 6.6 and 6.6 ± 0.8 | 156 µg/mL and 297 µM | – | 1.32 ± 0.16 µg | 2.5 ± 0.3 µM | 2.50 ± 0.38 CFe2+(µM)/Cpolyphenolic compound (µM) | 4.75 ± 0.72 CFe2+(µM)/Cpolyphenolic compound (μkg/mL) | did not show any effect | 23.7 µg/mL and 45 µM | – | –
5 | COc1cc([C@@H]2c3c(O)cc(O)cc3[C@@H]3[C@H]2CO[C@@H]3c2ccc(O)c(O)c2)cc(OC)c1O [Compound 6, maackolin] | – | 6.4 and 6.4 ± 0.8 | 256 µg/mL and 567 µM | – | 0.90 ± 0.14 µg | 2 ± 0.3 µM | – | 51.11 ± 5.86 CFe2+(µM)/Cpolyphenolic compound (μkg/mL) | – | 40.2 µg/mL and 88.9 µM | 9% | did not decrease the ROS level
6 | O=c1c(O)c(-c2ccc(O)c(O)c2)oc2cc(O)cc(O)c12 [Quercetin, reference compound] | – | – | – | – | 2.81 ± 0.12 µg | 9.3 ± 0.4 µM | 5.53 ± 0.55 CFe2+(µM)/Cpolyphenolic compound (µM) | 18.3 ± 1.82 CFe2+(µM)/Cpolyphenolic compound (μkg/mL) | – | – | – | –
